Measured values as given in paper PMC10108821, “Three tyrosine kinase inhibitors cause cardiotoxicity by inducing endoplasmic reticulum stress and inflammation in cardiomyocytes” (BMC Medicine, 2023).
Like-named read-outs stand apart in the source and are kept apart here.

Columns and labels:
NRCMs [1] = assay: Seahorse assay: oxygen consumption and extracellular acidification; assay type: cell-based, rat; settings: 24 h; fixed doses: 10 µM, crizotinib and ponatinib 3.16 µM
NRCMs [2] = assay: Lipid peroxidation by C11-bodipy 581/591 and flow cytometry
Method: For ROS assessment, cells were washed with PBS once and stained with 10μM H2DCFHDA (MCE) in phenol red-free DMEM (Procell) in a humid incubator with 5% CO2 at 37°C for 30 minutes. Cells were washed with PBS twice and dissociated to single cells before flow cytometry analysis at the FITC channel. For lipid peroxidation measurement, cells were washed with PBS once and stained with 2μM C11-bodipy^581/591 (Cayman) in phenol red-free DMEM (Procell) in a humid incubator with 5% CO2 at 37°C for 30 minutes. Cells were washed with PBS twice and dissociated to single cells before flow cytometry analysis at both the FITC and the PE channels. Fluorescence of the oxidized C11-bodipy were acquired through the FITC channel (Ex/Em=488/520nm) and that of the non-oxidized C11-bodipy through the PE channel (Ex/Em=555/624nm).

Cor.4U hiPSC-CMs = test system: Cor.4U hiPSC-CMs; design: method as in GSE114686; settings: ref GSE114686, cited from earlier work
[3] = Sprague-Dawley, rat, 24 h, 10 µM

Compound: CNC(=O)c1cc(Oc2ccc(NC(=O)Nc3ccc(Cl)c(C(F)(F)F)c3)cc2)ccn1 [sorafenib]
- basal oxygen consumption rate (OCR) (NRCMs [1]): significant inhibition
- maximal, spare and non-mitochondrial oxygen consumption (NRCMs [1]): inhibited maximal, spare, and non-mitochondrial oxygen consumption significantly
- change in percent of cells with high lipid peroxidation (NRCMs [2]): increased slightly
- level of lipid peroxidation, TKI alone (NRCMs [2]; [3]): 94.6%
- level of lipid peroxidation, TKI with trolox (NRCMs [2]; [3]): 88%
- CHAC1 logFC (Cor.4U hiPSC-CMs; Sorafenib 3.16 µM 168 hours): 3.62
- DDIT3 logFC (Cor.4U hiPSC-CMs; Sorafenib 3.16 µM 168 hours): 4.28
- DNAJB9 logFC (Cor.4U hiPSC-CMs; Sorafenib 3.16 µM 168 hours): 1
- TRIB3 logFC (Cor.4U hiPSC-CMs; Sorafenib 3.16 µM 168 hours): 5.51
- XBP1 logFC (Cor.4U hiPSC-CMs; Sorafenib 3.16 µM 168 hours): 1.42
- CHAC1 logFC (Cor.4U hiPSC-CMs; Sorafenib 10 µM 24 hours): 4.55
- DDIT3 logFC (Cor.4U hiPSC-CMs; Sorafenib 10 µM 24 hours): 4.73
- DNAJB9 logFC (Cor.4U hiPSC-CMs; Sorafenib 10 µM 24 hours): 1.43
- TRIB3 logFC (Cor.4U hiPSC-CMs; Sorafenib 10 µM 24 hours): 5.56
- XBP1 logFC (Cor.4U hiPSC-CMs; Sorafenib 10 µM 24 hours): 1.79
